Laboratory results taken from patent publication US12122761B2, “2-azaspiro[3.4]octane derivatives as M4 agonists” (NOVARTIS AG, priority 2019, dated 2024).
pEC50: −log10 of the molar value.

Key:
[1] = biological target: T1, human cloned CHRM4 receptor (M4_CHO cells) (Homo sapiens, UniProt P08173); assay: CHRM4 Ca++ Flux Assay (agonist mode, FDSS 7000EX); assay type: cell-based; details: for Emax: Percent Activity, read-out: M4 FDSS PA; for pEC50: geometric mean if tested more than once, read-out: M4 FDSS EC50
T1 construct: expressed in transfected cells; host or cells: CHO-K1
T1 sequence (P08173 1-479): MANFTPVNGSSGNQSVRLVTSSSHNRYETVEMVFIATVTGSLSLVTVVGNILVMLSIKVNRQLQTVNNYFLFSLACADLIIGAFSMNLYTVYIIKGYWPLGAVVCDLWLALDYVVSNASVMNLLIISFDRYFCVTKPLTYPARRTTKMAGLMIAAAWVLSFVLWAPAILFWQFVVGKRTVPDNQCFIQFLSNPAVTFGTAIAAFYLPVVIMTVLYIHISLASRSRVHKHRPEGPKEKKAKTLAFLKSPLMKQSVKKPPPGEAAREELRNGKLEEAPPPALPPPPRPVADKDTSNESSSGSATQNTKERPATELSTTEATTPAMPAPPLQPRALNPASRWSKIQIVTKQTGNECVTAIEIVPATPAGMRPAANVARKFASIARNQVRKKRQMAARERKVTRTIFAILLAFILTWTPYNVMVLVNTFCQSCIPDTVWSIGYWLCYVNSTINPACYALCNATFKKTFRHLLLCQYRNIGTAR
How it was run: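 M4_CHO cells loaded with a Ca++ dye for at least 1 h were held 60 min at room temperature in HEPES/probenecid buffer with 20 μM ATP. Ca++ flux after an 11-point compound dose, in triplicate and agonist mode, was recorded over 3 min. Four-parameter fits gave curves, with activity expressed relative to the Carbachol EC100.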

[2] = biological target: T2, human cloned CHRM3 receptor (M3_CHO cells) (Homo sapiens, UniProt P20309); assay: CHRM3 Ca++ Flux Assay (agonist mode, FDSS 7000EX); assay type: cell-based; details: for Emax: Percent Activity measured to EC100 of Carbachol, read-out: M3 FDSS PA; for pEC50: agonist mode, geometric mean if tested more than once, read-out: M3 FDSS EC50
T2 construct: expressed in transfected cells; host or cells: CHO-K1
T2 sequence (P20309 whole entry): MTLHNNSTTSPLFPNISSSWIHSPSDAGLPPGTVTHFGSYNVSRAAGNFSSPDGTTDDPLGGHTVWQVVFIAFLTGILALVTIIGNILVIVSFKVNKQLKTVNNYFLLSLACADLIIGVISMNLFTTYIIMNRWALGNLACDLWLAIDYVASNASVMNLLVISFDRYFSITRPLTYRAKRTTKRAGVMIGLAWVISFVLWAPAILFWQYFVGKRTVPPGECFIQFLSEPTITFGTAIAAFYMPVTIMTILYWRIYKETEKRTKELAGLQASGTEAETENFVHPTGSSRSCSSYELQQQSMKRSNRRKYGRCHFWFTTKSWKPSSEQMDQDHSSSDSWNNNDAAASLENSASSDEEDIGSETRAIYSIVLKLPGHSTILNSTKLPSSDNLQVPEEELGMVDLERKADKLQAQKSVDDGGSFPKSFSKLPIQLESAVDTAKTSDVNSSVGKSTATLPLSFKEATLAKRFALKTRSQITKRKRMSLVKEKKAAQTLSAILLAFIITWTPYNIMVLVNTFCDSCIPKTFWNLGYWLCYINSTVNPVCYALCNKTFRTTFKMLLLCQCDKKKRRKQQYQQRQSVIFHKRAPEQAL
How it was run: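 Fluorescent intracellular Ca++ signal, recorded for 3 min, served as read-out for CHO-K1 cells stably carrying human M3 or M5 receptor. Triplicate 11-point dose responses were averaged and fitted to a four-parameter model, with percent activity referenced to the carbachol EC100.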

Row | Emax [1] [%] | pEC50 [1] | Emax [2] [%] | pEC50 [2] | Structure (SMILES)
1 | 71 | 8.40 | 9 | 5.01 | O=C(C1COC1)N1CC2(CC[C@@H](N3CCC(c4ccccc4OC4CC4)CC3)C2)C1 [Example 7A, (R)-(6-(4-(2-cyclopropoxyphenyl)piperidin-1-yl)-2-azaspiro[3.4]octan-2-yl)(oxetan-3-yl)methanone]
2 | 57 | 8.70 | 0 | < 4.60 | N#CCCOc1ccccc1C1CCN([C@@H]2CCC3(C2)CN(C(=O)C2COC2)C3)CC1 [Example 7D, (R)-3-(2-(1-(2-(oxetane-3-carbonyl)-2-azaspiro[3.4]octan-6-yl)piperidin-4-yl)phenoxy)propanenitrile]
3 | 59 | 8.52 | 0 | < 4.60 | O=C(C1COC1)N1CC2(CC[C@@H](N3CCC(c4ccccc4OC[C@@H]4CCOC4)CC3)C2)C1 [Example 7E, oxetan-3-yl((R)-6-(4-(2-(((R)-tetrahydrofuran-3-yl)methoxy)phenyl)piperidin-1-yl)-2-azaspiro[3.4]octan-2-yl)methanone]
4 | 59 | 7.70 | 0 | < 4.60 | COc1ccc(F)cc1C1CCN([C@@H]2CCC3(C2)CN(c2ccnnc2)C3)CC1 [Example 5V, (R)-6-(4-(5-fluoro-2-methoxyphenyl)piperidin-1-yl)-2-(pyridazin-4-yl)-2-azaspiro[3.4]octane]
5 | 71 | 8.70 | 0 | < 4.60 | COc1ccccc1C1CCN([C@@H]2CCC3(C2)CN(c2nncs2)C3)CC1 [Example 3D, (R)-2-(6-(4-(2-methoxyphenyl)piperidin-1-yl)-2-azaspiro[3.4]octan-2-yl)-1,3,4-thiadiazole]

Continued, molecule first:

Row | Structure (SMILES) | Emax [1] [%] | pEC50 [1] | Emax [2] [%] | pEC50 [2]
6 | c1ccc(C2CCN([C@@H]3CCC4(C3)CN(c3nncs3)C4)CC2)c(OC2COC2)c1 [Example 3A, (R)-2-(6-(4-(2-(oxetan-3-yloxy)phenyl)piperidin-1-yl)-2-azaspiro[3.4]octan-2-yl)-1,3,4-thiadiazole] | 88 | > 9.40 | 0 | < 4.60
7 | CC(C)(O)CCOc1ccccc1C1CCN([C@@H]2CCC3(C2)CN(c2nnco2)C3)CC1 [Example 1F] | 48 | 8.40 | 0 | < 4.60
8 | c1ccc(C2CCN([C@@H]3CCC4(C3)CN(c3cncnc3)C4)CC2)c(OCC2COC2)c1 [Example 1N, (R)-6-(4-(2-(oxetan-3-ylmethoxy)phenyl)piperidin-1-yl)-2-(pyrimidin-5-yl)-2-azaspiro[3.4]octane] | 62 | > 9.40 | 0 | < 4.60
9 | c1ccc(C2CCN([C@@H]3CCC4(C3)CN(c3nnco3)C4)CC2)c(OCC2CCOCC2)c1 [Example 2G, (R)-2-(6-(4-(2-((tetrahydro-2H-pyran-4-yl)methoxy)phenyl)piperidin-1-yl)-2-azaspiro[3.4]octan-2-yl)-1,3,4-oxadiazole] | 70 | 8.15 | 0 | < 4.60
10 | CC(C)COc1ccccc1C1CCN([C@@H]2CCC3(C2)CN(C(=O)C2COC2)C3)CC1 [Example 7F, (R)-(6-(4-(2-isobutoxyphenyl)piperidin-1-yl)-2-azaspiro[3.4]octan-2-yl)(oxetan-3-yl)methanone] | 60 | 7.85 | 0 | < 4.60
11 | Fc1ccc(C2CCOCC2)c(C2CCN([C@@H]3CCC4(C3)CN(c3nnco3)C4)CC2)c1 [Example 2I, (R)-2-(6-(4-(5-fluoro-2-(tetrahydro-2H-pyran-4-yl)phenyl)piperidin-1-yl)-2-azaspiro[3.4]octan-2-yl)-1,3,4-oxadiazole] | 96 | 9.00 | 0 | < 4.60
